Here are results for one compound from ChEMBL document CHEMBL1153627, “Optimization of piperidin-4-yl-urea-containing melanin-concentrating hormone receptor 1 (MCH-R1) antagonists: Reducing hERG-associated liabilities” (Bioorg Med Chem Lett, 2009).

As a reminder, the clearance is a measure of how efficiently the substance is removed, as volume per time.

The nature of this data set: Clearance in rat. The data set is classed as ADME, organism-based. The settings on record: in vivo.

Compound `O=C(NC1CCN(Cc2ccn(-c3ccc(C(F)(F)F)cc3)c2)CC1)N[C@H](CO)c1ccccc1` yielded a clearance of 154 mL/min/kg.
